Laboratory results taken from US10087404B2, “Biological corrosion inhibitor for metals” (KURARAY CO., LTD., priority 2014, dated 2018).

What was measured:
[1] = system: strain Methanococcus maripaludis KA-1; assay: Biological corrosion suppression test (eluted iron concentration from iron flake); type: cell-based; details: 37° C., eluted iron measured at 7, 14, 21 and 28 days
Protocol: A biological corrosion suppression test of 3-Methylglutaraldehyde was performed as follows.
The liquid A was purged with a N2 gas for approximately 10 minutes and heated in an autoclave at 121° C. for 20 minutes, and then the liquid C, liquid E, liquid S, and liquid V were added thereto. 20 ml of the resulting mixture liquid was introduced into each of vials containing a sterilized iron flake (0.08 g of iron foil (10 mm length×10 mm width×0.1 mm thickness: Sigma-Aldrich 356808-G)). Each vial was purged with a gas (CO2 gas was mixed into N2 gas so as to give final concentration of 20% CO2 gas) for 5 minutes and then quickly closed with a butyl rubber cap, and the cap was fixed securely with an aluminum seal. After that, 0.5 ml (10^6 to 10^9 cells/ml) of the strain Methanococcus maripaludis KA-1 was added with a syringe, and 3-methylglutaraldehyde was further added so as to give the concentration shown in FIG. 1. Each vial was allowed to stand at 37° C., and the concentration of eluted iron was measured at 7 days, 14 days, 21 days, and 28 days for checking the progress of the biological corrosion of the iron flake. […]

[2] = Contact of acetal compound A with hydrochloric acid aqueous solution pH 4.0, analysed by gas chromatography; type: physicochemical; details: nitrogen atmosphere
Protocol: Hydrochloric acid was added to distilled water to adjust the pH to 4.0, thereby preparing a hydrochloric acid aqueous solution. To 100 g of the hydrochloric acid solution was added 2.0 g of an acetal compound represented by the following formula:
[drawing 5] (hereinunder, referred to as acetal compound A), and the mixture was stirred at 80° C. under nitrogen atmosphere. After 1 hour, a part was taken and analyzed by a gas chromatography. As a result, it was confirmed that 97.2% of the acetal compound A was consumed and 3-methylglutaraldehyde was produced at 82.6%. [Conditions of Gas Chromatography]
Hydrochloric acid was added to distilled water to adjust the pH to 4.0, thereby preparing a hydrochloric acid aqueous solution. To 100 g of the hydrochloric acid solution was added 2.0 g of the acetal compound A, and the mixture was stirred at 30° C. under nitrogen atmosphere. After 50 hours, a part was taken and analyzed by a gas chromatography in the same manner as in Example 3. As a result, it was confirmed that 52.5% of the acetal compound A was consumed and 3-methylglutaraldehyde was produced at 47.3%.

Question: With `CC(CC=O)CC=O` [3-methylglutaraldehyde] as the compound, how does the “addition concentration at which the concentration of eluted iron was suppressed to a sufficiently low level” value [1] read?
Answer: 1 ppm

Question: Which results are given for `CC(CC=O)CC1OCCO1` (stereo not shown) [acetal compound A]?
Answer: acetal compound A consumed ([2]; hydrochloric acid aqueous solution pH 4.0, 30° C., after 50 hours): 52.5%; acetal compound A consumed ([2]; hydrochloric acid aqueous solution pH 4.0, 80° C., after 1 hour): 97.2%

Question: With `O=CCCCC=O` [glutaraldehyde, reference compound] as the compound, how does the “addition concentration at which the concentration of eluted iron was suppressed to a sufficiently low level” value [1] read?
Answer: 100 ppm
